This note sets out measurements from ChEMBL document CHEMBL3120081, “Imidazopyridazine hepatitis C virus polymerase inhibitors. Structure-activity relationship studies and the discovery of a novel, traceless prodrug mechanism” (J Med Chem, 2014).

SMILES strings stand for the structures. Values after ≈ are worked out from the molar mass of the structure shown.

For series [1], the system named is Hepatitis C virus. Kind of series: Antiviral activity against Hepatitis C virus genotype 1b infected in human HuH7 cells after 48 hrs by luciferase reporter gene assay. It counts as functional, organism-based, Hepacivirus hominis. Particulars: Huh-7, 48 h. (In general: A reporter such as luciferase makes a cellular process visible.)
The subject of series [2] is Hepatitis C virus. Briefly: Antiviral activity against Hepatitis C virus genotype 1a infected in human HuH7 cells after 48 hrs by luciferase reporter gene assay. It counts as functional, organism-based, Hepacivirus hominis. Particulars: subtype 1a, Huh-7, 48 h.
A short description of series [3]: Stability of the compound in blood (unknown origin) assessed as 5-((2-(2,3-Difluorophenyl)-5H-imidazo[4,5-d]pyridazin-5-yl)-methyl)-3-(4-propoxy-2-(trifluoromethyl)phenyl)isoxazole level at 1 uM up to 60 mins by LC/MS/MS analysis. It counts as ADME, tissue-based. Particulars: 1 h.
Series [4] in a line: Stability in rat microsomes assessed as 5-((2-(2,3-Difluorophenyl)-5H-imidazo[4,5-d]pyridazin-5-yl)-methyl)-3-(4-propoxy-2-(trifluoromethyl)phenyl)isoxazole level at 0.5 uM by LC/MS/MS analysis. It counts as ADME, Microsome.
Series [5] is described as follows: Stability of the compound in water assessed as 5-((2-(2,3-Difluorophenyl)-5H-imidazo[4,5-d]pyridazin-5-yl)-methyl)-3-(4-propoxy-2-(trifluoromethyl)phenyl)isoxazole level at 1 uM at pH 2 up to 60 mins by LC/MS/MS analysis. The settings on record: buffer, pH 2, 1 h. It counts as physicochemical.
Series [6] in a line: AUC in CD rat at 1000 mg/kg by LC/MS/MS analysis. It counts as ADME, organism-based. On the set-up: dose 1000 mg/kg. The settings on record: plasma.
In series [7] the test system is Hepatocyte. Briefly: Stability in rat hepatocytes assessed as 5-((2-(2,3-Difluorophenyl)-5H-imidazo[4,5-d]pyridazin-5-yl)-methyl)-3-(4-propoxy-2-(trifluoromethyl)phenyl)isoxazole level at 0.5 uM by LC/MS/MS analysis. It counts as ADME, cell-based.
The nature of series [8]: Oral bioavailability in beagle dog at 5 mg/kg by LC/MS/MS analysis. Particulars: in vivo. It counts as ADME, organism-based, Canis lupus familiaris.
Series [9] is described as follows: Oral bioavailability in CD rat at 5 mg/kg by LC/MS/MS analysis. It counts as ADME, organism-based. The settings on record: in vivo.
Series [10] is described as follows: Solubility of the compound in phosphate buffered saline at pH 7.4 after 1 hr by chemiluminescence nitrogen detection assay. It counts as physicochemical.
A short description of series [11]: Half life in blood (unknown origin) assessed as 5-((2-(2,3-Difluorophenyl)-5H-imidazo[4,5-d]pyridazin-5-yl)-methyl)-3-(4-propoxy-2-(trifluoromethyl)phenyl)isoxazole level. It counts as ADME, tissue-based.
Series [12] is described as follows: Stability of the compound in water assessed as 5-((2-(2,3-Difluorophenyl)-5H-imidazo[4,5-d]pyridazin-5-yl)-methyl)-3-(4-propoxy-2-(trifluoromethyl)phenyl)isoxazole level at 1 uM at pH 7 up to 60 mins by LC/MS/MS analysis. Particulars: buffer, pH 7, 1 h. It counts as physicochemical.
Series [13] deals with Hepatocyte. Briefly: Half life in rat hepatocytes assessed as 5-((2-(2,3-Difluorophenyl)-5H-imidazo[4,5-d]pyridazin-5-yl)-methyl)-3-(4-propoxy-2-(trifluoromethyl)phenyl)isoxazole level. It counts as ADME, cell-based.
In series [14] the test system is Canis familiaris. Kind of series: Hepatotoxicity in beagle dog at 10 to 600 mg/kg/day, po qd for 7 days. The arrangement: route oral. The settings on record: in vivo, 168 h. It counts as toxicity, organism-based, Canis lupus familiaris.
The subject of series [15] is Rattus norvegicus. Kind of series: Toxicity in rat at 10 to 1000 mg/kg/day, po qd for 7 days. It counts as organism-based. The arrangement: route oral. The settings on record: in vivo, 168 h.
In series [16] the target is Voltage-gated inwardly rectifying potassium channel KCNH2 (Homo sapiens, UniProt Q12809). Briefly: Inhibition of human ERG expressed in CHO cells.
Sequence of Voltage-gated inwardly rectifying potassium channel KCNH2 (Q12809 whole entry): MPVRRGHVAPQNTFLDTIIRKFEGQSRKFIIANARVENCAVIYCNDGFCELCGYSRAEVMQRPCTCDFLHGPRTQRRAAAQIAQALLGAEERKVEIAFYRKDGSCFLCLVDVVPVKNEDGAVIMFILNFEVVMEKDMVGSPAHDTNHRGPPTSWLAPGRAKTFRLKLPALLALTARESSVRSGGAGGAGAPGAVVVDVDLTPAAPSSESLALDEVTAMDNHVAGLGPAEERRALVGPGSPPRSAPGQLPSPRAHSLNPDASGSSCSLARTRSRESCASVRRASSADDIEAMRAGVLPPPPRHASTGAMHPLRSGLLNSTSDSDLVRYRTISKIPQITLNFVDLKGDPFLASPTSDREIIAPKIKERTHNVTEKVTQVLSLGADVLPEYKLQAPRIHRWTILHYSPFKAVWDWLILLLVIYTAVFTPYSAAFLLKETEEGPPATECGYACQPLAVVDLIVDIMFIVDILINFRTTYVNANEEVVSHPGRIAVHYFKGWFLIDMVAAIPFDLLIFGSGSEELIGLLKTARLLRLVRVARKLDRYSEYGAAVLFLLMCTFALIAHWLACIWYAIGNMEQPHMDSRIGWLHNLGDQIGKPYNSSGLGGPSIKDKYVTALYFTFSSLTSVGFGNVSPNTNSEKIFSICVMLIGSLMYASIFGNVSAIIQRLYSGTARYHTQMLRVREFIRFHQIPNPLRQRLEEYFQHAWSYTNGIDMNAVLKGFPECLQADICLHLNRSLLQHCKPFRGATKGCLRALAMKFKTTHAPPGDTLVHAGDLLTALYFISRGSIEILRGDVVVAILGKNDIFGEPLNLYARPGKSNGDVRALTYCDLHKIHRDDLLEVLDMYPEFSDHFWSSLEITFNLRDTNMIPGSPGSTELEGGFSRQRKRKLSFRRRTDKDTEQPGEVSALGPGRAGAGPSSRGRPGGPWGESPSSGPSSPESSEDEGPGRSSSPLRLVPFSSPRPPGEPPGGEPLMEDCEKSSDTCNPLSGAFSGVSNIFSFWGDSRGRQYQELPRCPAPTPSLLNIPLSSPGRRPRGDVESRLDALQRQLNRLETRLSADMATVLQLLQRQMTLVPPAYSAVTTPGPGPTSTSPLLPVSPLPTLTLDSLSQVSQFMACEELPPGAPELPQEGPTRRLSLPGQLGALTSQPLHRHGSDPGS
Series [17] can be described thus: Stability of the compound in blood (unknown origin) at 1 uM up to 60 mins by LC/MS/MS analysis. It counts as ADME, tissue-based. The settings on record: 1 h.
In series [18] the test system is Hepatocyte. Briefly: Stability in rat hepatocytes at 0.5 uM by LC/MS/MS analysis. It counts as ADME, cell-based.
A short description of series [19]: Stability of the compound in water at 1 uM at pH 7 up to 60 mins by LC/MS/MS analysis. It counts as physicochemical. The settings on record: buffer, pH 7, 1 h.
Series [20] can be described thus: Stability in rat microsomes at 0.5 uM by LC/MS/MS analysis. It counts as ADME, Microsome.
The nature of series [21]: Stability of the compound in water at 1 uM at pH 2 up to 60 mins by LC/MS/MS analysis. Particulars: buffer, pH 2, 1 h. It counts as physicochemical.

Usually EC50 stands for the concentration that produces a half-maximal response. As to `Fc1cccc(-c2nc3cnn(Cc4cc(-c5ccc(C(F)(F)F)cc5C(F)(F)F)no4)cc-3n2)c1`, the half-maximal effective concentration (EC50) in [1] was greater than 50000 nM.

As to `CCCOc1ccc(-c2cnc(Cn3cc4nc(-c5cccc(F)c5F)nc-4cn3)nc2)c(C(F)(F)F)c1`, the EC50 in series [1] was determined as 240 nM; in [2], 300 nM.

Regarding `CC(C)(c1cc(-c2ccc(C(F)(F)F)cc2C(F)(F)F)no1)n1cc2nc(-c3cccc(F)c3F)nc-2cn1`, the values for the EC50 in series [1] and in series [2] were 1500 nM and 5400 nM, respectively.

As usually defined, the AUC is concentration integrated over time. A high value points to more exposure. By bioavailability is commonly meant the share of a dose that reaches the circulation, judged against a reference dose that is usually intravenous. A higher bioavailability goes with good availability. What is called solubility (kinetic) is the concentration staying in solution when a stock, usually in DMSO, is diluted into the medium. As to `CCCOc1ccc(-c2cc(C(C(=O)OC)n3cc4nc(-c5cccc(F)c5F)nc-4cn3)on2)c(C(F)(F)F)c1` (stereo not drawn), the Stability result in [3], in series [4], in [5], in series [7] and in series [12] was “Stable” each time. In addition, the values for the EC50 in [1] and in [2] were 3 nM and 21 nM, respectively. For the same compound, the AUC in series [6] is 118 µg·h/mL. Besides, the bioavailability is 51% in series [8] and 80% in series [9]. This compound came in with a kinetic solubility at 1 h in [10] of 17 µM (≈ 9.75 µg/mL). Also, the t1/2 in series [11] and in series [13] was 15 min each time.

As to `CCCOc1ccc(-c2cc(C(C(=O)OCCCO)n3cc4nc(-c5cccc(F)c5F)nc-4cn3)on2)c(C(F)(F)F)c1` (stereo not drawn), the figures for the 50% effective concentration (EC50) in [1] and in series [2] were 6 nM and 23 nM, respectively. Besides, the AUC in series [6] turned out to be 64 µg·h/mL. Further, the bioavailability came to 63% in [8] and 91% in series [9]. In series [10], the solubility (kinetic) at 1 h was 14 µM (≈ 8.65 µg/mL).

Take `CCCOc1ccc(-c2cc(C(C(=O)OCCOCCO)n3cc4nc(-c5cccc(F)c5F)nc-4cn3)on2)c(C(F)(F)F)c1` (stereo not drawn): the Activity result in series [14] is listed as “Toxic”; in series [15], “Non-toxic”. For the same compound, the concentration giving a half-maximal response (EC50) in series [1] stood at 3 nM; in series [2], 11 nM. In series [6], this compound yielded an AUC of 325 µg·h/mL. The figures for the bioavailability in series [8] and in [9] were 91% and 98%, respectively. For the same compound, the solubility (kinetic) at 1 h in series [10] was found to be 24 µM (≈ 15.5 µg/mL).

As to `Fc1ccccc1-c1nc2cnn(Cc3cc(-c4ccc(Cl)cc4)no3)cc-2n1`, the EC50 in [1] worked out at 170 nM.

The term IC50 denotes the concentration at which inhibition is half-maximal. Read a high IC50 as a need for much substance. Consider `Fc1ccccc1-c1nc2ccn(Cc3cc(-c4ccc(C(F)(F)F)cc4C(F)(F)F)no3)cc-2n1`, for which the IC50 in [16] was 794 nM.

As for `Fc1cccc(-c2nc3cnn(Cc4cc(-c5ccc(C(F)(F)F)nc5)no4)cc-3n2)c1F`, the EC50 in series [1] stood at 300 nM.

Regarding `CCCOc1cnc(-c2cc(Cn3cc4nc(-c5cccc(F)c5F)nc-4cn3)on2)cn1`, the EC50 was found to be 220 nM in series [1] and 1400 nM in [2].

`COc1ncc(-c2cc(Cn3cc4nc(-c5cccc(F)c5F)nc-4cn3)on2)cn1`: the EC50 in series [1] and in [2] was greater than 50000 nM in each case.

Take `Fc1cccc(-c2nc3cnn(Cc4cc(-c5ccc(C(F)(F)F)cc5)no4)cc-3n2)c1F`: the figures for the EC50 in series [1] and in series [2] were 24 nM and 70 nM, respectively.

`CCCCc1ccc(-c2cc(Cn3cc4nc(-c5cccc(F)c5F)nc-4cn3)on2)cc1`: the EC50 in series [1] was determined as 10 nM; in series [2], 80 nM.

With `Cc1ccc(-c2cc(Cn3cc4nc(-c5cccc(F)c5F)nc-4cn3)on2)cc1`, the EC50 in series [1] worked out at 23 nM; in series [2], 110 nM.

With `COc1ccc(-c2cc(Cn3cc4nc(-c5cccc(F)c5F)nc-4cn3)on2)cc1`, the EC50 in series [1] came out at 90 nM; in [2], 300 nM.

Take `CCCOc1ccc(-c2cc(Cn3cc4nc(-c5cccc(F)c5F)nc-4cn3)on2)c(C(F)(F)F)c1`: the Stability entry in series [17], in [18], in series [19], in series [20] and in series [21] was “Stable” throughout. The results for the EC50 in [1] and in [2] were 3 nM and 21 nM, respectively. The bioavailability in [8] came to 12%; in series [9], 33%. Moreover, the kinetic solubility at 1 h in series [10] amounted to 1.6 µM (≈ 0.825 µg/mL).

On to `Fc1ccccc1-c1nc2cnn(Cc3cc(-c4ccc(C(F)(F)F)cc4C(F)(F)F)no3)cc-2n1`, for which the results for the EC50 in [1] and in series [2] were 110 nM and 3700 nM, respectively.

`Fc1cccc(F)c1-c1nc2cnn(Cc3cc(-c4ccc(C(F)(F)F)cc4C(F)(F)F)no3)cc-2n1` showed an EC50 in [1] of 5000 nM.

`FC(F)(F)c1ccc(-c2cc(Cn3cc4nc(-c5cccs5)nc-4cn3)on2)c(C(F)(F)F)c1` registered a 50% effective concentration (EC50) in [1] of 1750 nM. This EC50 is about 2.9-fold lower than that of the compound before.

As to `CCCOc1ccc(-c2cc(Cn3cc4nc(-c5cccc(F)c5F)nc-4cn3)no2)cc1`, the EC50 in series [1] came out at 40 nM; in series [2], 110 nM.

Take `Fc1cccc(-c2nc3cnn(Cc4cn(-c5ccc(C(F)(F)F)cc5C(F)(F)F)cn4)cc-3n2)c1F`: the values for the EC50 in series [1] and in series [2] were 7000 nM and greater than 50000 nM, respectively.

For the compound `Fc1cccc(-c2nc3cnn(CCCc4ccc(C(F)(F)F)cc4C(F)(F)F)cc-3n2)c1F`, the EC50 in series [1] was 52000 nM; in series [2], 16000 nM.

`Fc1cccc(-c2nc3cnn(Cc4ccc(-c5ccc(C(F)(F)F)cc5C(F)(F)F)cc4)cc-3n2)c1F`: the EC50 is 18 nM in series [1] and 120 nM in [2].

As to `Fc1cccc(-c2nc3cnn(Cc4ccc(-c5ccc(C(F)(F)F)cc5C(F)(F)F)cn4)cc-3n2)c1F`, the EC50 stood at 40 nM in series [1] and 300 nM in series [2].

`CCCOc1ccc(-c2ccc(Cn3cc4nc(-c5cccc(F)c5F)nc-4cn3)nn2)c(C(F)(F)F)c1`: the EC50 in [1] was found to be 7 nM; in series [2] it was 18 nM.

As for `CCCOc1ccc(-c2cnc(Cn3cc4nc(-c5cccc(F)c5F)nc-4cn3)cn2)c(C(F)(F)F)c1`, the EC50 in series [1] turned out to be 30 nM; in [2], 60 nM.

Take `CC(c1cc(-c2ccc(C(F)(F)F)cc2C(F)(F)F)no1)n1cc2nc(-c3cccc(F)c3F)nc-2cn1` (racemic): the EC50 in series [1] worked out at 80 nM; in [2], 900 nM.

Consider `Fc1ccccc1-c1nc2ccn(Cc3ccc(-c4ccc(C(F)(F)F)cc4C(F)(F)F)nn3)cc-2n1` [TEGOBUVIR], for which a half-maximal effect in [1] (EC50) was put at 5 nM.
